{"source": "patent US12325744B2", "about": "“Methods for reducing post-operative cognitive dysfunction (POCD)” (The Kennedy Trust for Rheumatology Research, priority 2010, dated 2025)", "key": {"[1]": {"tested_on": "IL-6", "assay": "Plasma IL-6 by ELISA after LPS injection", "type": "in vivo, mice", "conditions": "LPS 1 mg/kg i.p., IL-1Ra 100 mg/kg s.c. immediately before LPS", "method": "(§1) Treatment. LPS derived from Escherichia Coli endotoxin ([…], InvivoGen, USA, 1 mg/kg) was dissolved in normal saline and injected intraperitoneally. IL-1Ra (Amgen, Anakinra 100 mg/kg, Nederlands) was given subcutaneously immediately before LPS administration. Dose response curve from LPS or IL-1Ra was obtained from our pilot studies to provoke or to suppress moderate degree of microglia activation respectively. Control animals were injected with equivalent volumes (0.1 ml) of saline. Mice from each treatment group were randomly assigned for assessment of either cytokine response or cognitive behavior, in order to obviate possible confounding effects of behavioral testing on inflammatory markers.\n(§2) Plasma cytokine measurement. Blood was sampled transcardially after thoracotomy under terminal anesthesia 30 minutes, 2, 6, 12 hours and 1, 3, 7 days after experiments in the different cohorts and centrifuged at 3,600 rpm for 7 minutes at 4° C. Blood samples taken from animals without any interventions severed as controls. Plasma samples were stored at −20° C. for further analysis. Plasma cytokine and HMGB-1 were measured using commercially available ELISA kits from Biosource, CA and Shino-test Corporation, Japan, respectively. The sensitivities of the assays were <3 pg/ml for TNFα, <7 pg/ml for IL-1β, <3 pg/ml for IL-6 and 1 ng/ml for HMGB-1."}, "[2]": {"tested_on": "IL-1β", "assay": "Plasma IL-1β by ELISA after LPS injection", "type": "in vivo, mice", "conditions": "LPS 1 mg/kg i.p., IL-1Ra 100 mg/kg s.c. immediately before LPS", "method": "as §1, §2"}, "[3]": {"tested_on": "IL-1β", "assay": "Plasma (systemic) IL-1β by ELISA after tibial surgery", "type": "in vivo", "conditions": "wild type mice, minocycline 40 mg/kg i.p., enrofloxacin 10 mg/kg or IL-1Ra 100 mg/kg given prior to surgery, vs surgery alone", "description": "Mice were subjected to an open tibial fracture of the left hind paw with intramedullary fixation in aseptic conditions under general anaesthesia with isoflurane and analgesia with buprenorphineas previously described^18. Other groups of animals were not subjected to any intervention (naïve), or received anesthetic/analgesia alone, or underwent surgery with concurrent administration of minocycline, enrofloxacin, or IL-1 receptor antagonist (IL-1Ra). (For further details please refer to supplemental methods).\nIL-6, TNF-α and IL-1β were measured by ELISA^19 (Biosource, CA; Bender Medsystem, CA, respectively). Hippocampal IL-1β was measured by ELISA (Bender Medsystem, CA), as previously described^20. To confirm reliability of dilution linearity and spike recovery cytokine measurement were also performed in mice in which inflammation was induced with i.p. LPS (0111:B4, Invivogen, CA). (For further details please refer to supplemental methods).\nMice were randomly assigned to the following groups: surgery under general anesthesia (S), surgery under general anesthesia plus minocycline (M), surgery under general anesthesia plus enrofloxacin (E), surgery under general anesthesia plus interleukin-1 receptor antagonist (IL-1Ra) (I), surgery in IL1R^−/− mice under general anesthesia (K), general anesthesia without surgery (A), and no intervention (naïve wild-type, or naïve IL1R^−/−). Under aseptic conditions, groups of mice were subjected to an open tibial fracture of the left hind paw with an intramedullary fixation as previously described^2. Briefly, isoflurane (Abbot Laboratories Ltd., Queensborough, Kent, UK) 2.1% in air (1.5 MAC)^3 and buprenorphine (Reckitt Benckiser Healthcare Ltd, Hull, UK) 0.1 mg/kg subcutaneously (sc), were given to provide both surgical anesthesia and extended post-operative analgesia for the surgical intervention and post-surgical recovery. After shaving the overlying skin and disinfecting with chlorhexidine gluconate 0.5% and isopropyl alcohol 70% (PDI, Orangeburg, NY, USA) a fracture of the tibial shaft was created under direct vision. […]"}}, "note": "“Also recorded” adds a separate entry of the source."}
{"substance": "IL-1Ra: IL-1 receptor antagonist (Amgen, Anakinra)", "values": [{"measurement": "Plasma IL-6 at 6 hours after LPS with IL-1Ra", "setting": "[1]; 6 hours", "result": "91.02 ± 15.17", "unit": "pg/mL"}, {"measurement": "Plasma IL-6 at 24 hours after LPS with IL-1Ra", "setting": "[1]; 24 hours", "result": "14.05 ± 2.34", "unit": "pg/mL"}, {"measurement": "Plasma IL-1β at 6 hours after LPS with IL-1Ra", "setting": "[2]; 6 hours", "result": "32.7 ± 5.45", "unit": "pg/mL"}, {"measurement": "Plasma IL-1β at 24 hours after LPS with IL-1Ra", "setting": "[2]; 24 hours", "result": "6.2 ± 1.03", "unit": "pg/mL"}, {"measurement": "Plasma IL-1β after surgery, effect of treatment", "setting": "[3]", "result": "did not increase circulating IL-1β; also recorded: Surgery did not induce a significant increase of IL-1β at 24 h"}]}
